From patent US20020115699A1, “Method for treating renal disease” (SmithKline Beecham p.l.c., priority 1994, published 2002)

How the values were obtained:
[1] = system: Zucker fatty (fa/fa) rats; test: Urinary total protein (Bio-Rad dye-binding assay, 24 h urine) in 9 month Zucker rat study; format: in vivo; details: Zucker fatty rats; for URINARY PROTEIN CONCENTRATION: mean ± SEM
Method: A second study was performed in Zucker rats over a period of 9 months to investigate the longitudinal effects of the drug on systolic blood pressure and various indices of renal function, two of which are exemplified here. […] A third group of Zucker fatty rats and a further group of lean rats were given diet alone throughout the period of study. After dosing with the test compound, at monthly intervals measurements were made of systolic blood pressure, urinary total protein and urinary N-acetyl β-D-glucosaminidase (NAG) activity. Twenty-four hour urine collections, made in metabolism cages, were aliquoted and frozen at −70° C. until required for assay. Urinary protein concentration was measured using the Bio-Rad protein assay as modified for use in a 96-well microtitre plate. The assay is a dye-binding assay based on the differential colour change of a dye in response to various concentrations of protein (Bradford, Anal. Biochem., 72, 248, 1976). After a period of incubation with Dye Reagent, diluted urine samples are read at an optical density of 595 nm using a Molecular Devices multiplate reader.

[2] = system: Zucker fatty (fa/fa) rats; test: Urinary N-acetyl β-D-glucosaminidase (NAG) activity in 9 month Zucker rat study; format: in vivo; details: for URINARY N-ACETYL-β-D-GLUCOSAMINIDASE ACTIVITY: mean ± SEM
Method: A second study was performed in Zucker rats over a period of 9 months to investigate the longitudinal effects of the drug on systolic blood pressure and various indices of renal function, two of which are exemplified here. In one arm of the study, the drug was given in the diet (50 μmole/kg of diet) from aged 6-7 weeks in Zucker fatty (fa/fa) rats, whilst in a second arm of the study, drug treatment as above was delayed until proteinuria had become established after 4 months, indicative of structural damage already present in the kidneys. A third group of Zucker fatty rats and a further group of lean rats were given diet alone throughout the period of study.
After dosing with the test compound, at monthly intervals measurements were made of systolic blood pressure, urinary total protein and urinary N-acetyl β-D-glucosaminidase (NAG) activity.
Twenty-four hour urine collections, made in metabolism cages, were aliquoted and frozen at −70° C. until required for assay.
NAG activity was assayed using a reagent kit on a Hitachi 717 analyser (both suppied by Boehringer Mannheim UK, Lewes). Enzyme activity was measured by monitoring the rate of chlorophenol (570 nm) released from the substrate chlorophenol red-β-D-glucosaminide.
In the tables below, results are given as mean values for the group ±the standard error of the mean. Results have been analysed by one way ANOVA and significant differences from the Zucker fatty rat control group have been indicated by an asterisk.

With `CN(CCOc1ccc(CC2SC(=O)NC2=O)cc1)c1ccccn1` (centres unmarked) [Test Compound, 5-[4-[2-(N-methyl-N-(2-pyridyl)amino)ethoxy]benzyl]thiazolidine-2,4-dione] the “URINARY PROTEIN CONCENTRATION” value ([1]; 50 μmol/kg of diet from age 6-7 weeks (prior to renal complications), treatment duration 8 months) was 2664 ± 370 µg/h, the “URINARY PROTEIN CONCENTRATION” value ([1]; 50 μmol/kg of diet from age 6-7 weeks (prior to renal complications), treatment duration 9 months) was 3152 ± 515 µg/h and the URINARY PROTEIN CONCENTRATION ([1]; 50 μmol/kg of diet started once renal complications established (after 4 months), treatment duration 0 months) was 3520 ± 905 µg/h. The URINARY PROTEIN CONCENTRATION ([1]; 50 μmol/kg of diet started once renal complications established (after 4 months), treatment duration 1 month) was 3690 ± 386 µg/h, the URINARY PROTEIN CONCENTRATION ([1]; 50 μmol/kg of diet started once renal complications established (after 4 months), treatment duration 2 months) was 5330 ± 967 µg/h and the URINARY PROTEIN CONCENTRATION ([1]; 50 μmol/kg of diet started once renal complications established (after 4 months), treatment duration 3 months) was 6230 ± 835 µg/h. The URINARY PROTEIN CONCENTRATION ([1]; 50 μmol/kg of diet started once renal complications established (after 4 months), treatment duration 4 months) was 5380 ± 708 µg/h, the URINARY PROTEIN CONCENTRATION ([1]; 50 μmol/kg of diet started once renal complications established (after 4 months), treatment duration 5 months) was 7680 ± 825 µg/h and the URINARY PROTEIN CONCENTRATION ([1]; 50 μmol/kg of diet started once renal complications established (after 4 months), treatment duration −1 month (before start of drug)) was 958 ± 194 µg/h. It also gave a URINARY PROTEIN CONCENTRATION ([1]; 50 μmol/kg of diet started once renal complications established (after 4 months), treatment duration −2 months (before start of drug)) of 457 ± 21 µg/h, a URINARY PROTEIN CONCENTRATION ([1]; 50 μmol/kg of diet started once renal complications established (after 4 months), treatment duration −3 months (before start of drug)) of 347 ± 32 µg/h and a URINARY PROTEIN CONCENTRATION ([1]; 50 μmol/kg of diet started once renal complications established (after 4 months), treatment duration −4 months (before start of drug)) of 220 ± 13 µg/h. The “rate of increase in the urinary protein concentration” value ([1]; drug treatment commenced after proteinuria had become established) was “marked reduction”, the “elevation of urinary NAG activity” value ([2]; Zucker fatty (fa/fa) rats treated from age 6-7 weeks for 9 months via the diet) was “markedly reduced” and the “URINARY N-ACETYL-β-D-GLUCOSAMINIDASE ACTIVITY” value ([2]; Zucker fatty rats, 50 μmol/kg of diet from age 6-7 weeks (prior to renal complications), treatment duration 0 months) was 5.7 ± 0.4 mU/hour. For the same molecule, the “URINARY N-ACETYL-β-D-GLUCOSAMINIDASE ACTIVITY” value ([2]; Zucker fatty rats, 50 μmol/kg of diet from age 6-7 weeks (prior to renal complications), treatment duration 1 month) was 7.5 ± 0.7 mU/hour, the “URINARY N-ACETYL-β-D-GLUCOSAMINIDASE ACTIVITY” value ([2]; Zucker fatty rats, 50 μmol/kg of diet from age 6-7 weeks (prior to renal complications), treatment duration 2 months) was 3.8 ± 1.1 mU/hour and the “URINARY N-ACETYL-β-D-GLUCOSAMINIDASE ACTIVITY” value ([2]; Zucker fatty rats, 50 μmol/kg of diet from age 6-7 weeks (prior to renal complications), treatment duration 3 months) was 4.5 ± 0.9 mU/hour. The “URINARY N-ACETYL-β-D-GLUCOSAMINIDASE ACTIVITY” value ([2]; Zucker fatty rats, 50 μmol/kg of diet from age 6-7 weeks (prior to renal complications), treatment duration 4 months) was 5.1 ± 1.2 mU/hour, the “URINARY N-ACETYL-β-D-GLUCOSAMINIDASE ACTIVITY” value ([2]; Zucker fatty rats, 50 μmol/kg of diet from age 6-7 weeks (prior to renal complications), treatment duration 5 months) was 6.5 ± 0.7 mU/hour and the “URINARY N-ACETYL-β-D-GLUCOSAMINIDASE ACTIVITY” value ([2]; Zucker fatty rats, 50 μmol/kg of diet from age 6-7 weeks (prior to renal complications), treatment duration 6 months) was 6.5 ± 1.1 mU/hour. The “URINARY N-ACETYL-β-D-GLUCOSAMINIDASE ACTIVITY” value ([2]; Zucker fatty rats, 50 μmol/kg of diet from age 6-7 weeks (prior to renal complications), treatment duration 7 months) was 8.9 ± 0.8 mU/hour, the “URINARY N-ACETYL-β-D-GLUCOSAMINIDASE ACTIVITY” value ([2]; Zucker fatty rats, 50 μmol/kg of diet from age 6-7 weeks (prior to renal complications), treatment duration 8 months) was 6.2 ± 1.2 mU/hour and the “URINARY N-ACETYL-β-D-GLUCOSAMINIDASE ACTIVITY” value ([2]; Zucker fatty rats, 50 μmol/kg of diet from age 6-7 weeks (prior to renal complications), treatment duration 9 months) was 9.1 ± 1.2 mU/hour. For the same molecule, the “URINARY N-ACETYL-β-D-GLUCOSAMINIDASE ACTIVITY” value ([2]; Zucker fatty rats, 50 μmol/kg of diet started once renal complications established (after 4 months), treatment duration 0 months) was 7.6 ± 0.7 mU/hour, the “URINARY N-ACETYL-β-D-GLUCOSAMINIDASE ACTIVITY” value ([2]; Zucker fatty rats, 50 μmol/kg of diet started once renal complications established (after 4 months), treatment duration 1 month) was 7.6 ± 0.7 mU/hour and the “URINARY N-ACETYL-β-D-GLUCOSAMINIDASE ACTIVITY” value ([2]; Zucker fatty rats, 50 μmol/kg of diet started once renal complications established (after 4 months), treatment duration 2 months) was 5.7 ± 0.9 mU/hour. For the same molecule, the “URINARY N-ACETYL-β-D-GLUCOSAMINIDASE ACTIVITY” value ([2]; Zucker fatty rats, 50 μmol/kg of diet started once renal complications established (after 4 months), treatment duration 3 months) was 7.4 ± 0.9 mU/hour, the “URINARY N-ACETYL-β-D-GLUCOSAMINIDASE ACTIVITY” value ([2]; Zucker fatty rats, 50 μmol/kg of diet started once renal complications established (after 4 months), treatment duration 4 months) was 5.4 ± 1.0 mU/hour and the “URINARY N-ACETYL-β-D-GLUCOSAMINIDASE ACTIVITY” value ([2]; Zucker fatty rats, 50 μmol/kg of diet started once renal complications established (after 4 months), treatment duration 5 months) was 8.0 ± 1.1 mU/hour. The “URINARY N-ACETYL-β-D-GLUCOSAMINIDASE ACTIVITY” value ([2]; Zucker fatty rats, 50 μmol/kg of diet started once renal complications established (after 4 months), treatment duration −1 month (before start of drug)) was 7.8 ± 0.6 mU/hour, the “URINARY N-ACETYL-β-D-GLUCOSAMINIDASE ACTIVITY” value ([2]; Zucker fatty rats, 50 μmol/kg of diet started once renal complications established (after 4 months), treatment duration −2 months (before start of drug)) was 9.5 ± 1.1 mU/hour and the “URINARY N-ACETYL-β-D-GLUCOSAMINIDASE ACTIVITY” value ([2]; Zucker fatty rats, 50 μmol/kg of diet started once renal complications established (after 4 months), treatment duration −3 months (before start of drug)) was 8.3 ± 0.5 mU/hour. For the same molecule, the “URINARY N-ACETYL-β-D-GLUCOSAMINIDASE ACTIVITY” value ([2]; Zucker fatty rats, 50 μmol/kg of diet started once renal complications established (after 4 months), treatment duration −4 months (before start of drug)) was 5.4 ± 0.2 mU/hour and the “urinary NAG activity” value ([2]; Zucker fatty rats, drug treatment commenced after proteinuria had become established) was “prevented from rising further”.
